We go through two molecules from US9133435B2, “Method for induction/differentiation into photoreceptor cell” (RIKEN, priority 2007, dated 2015).

The assay concerns mouse ES cells. In words: Induction of differentiation of mouse ES cells into neural cells (βII tubulin-positive cells). The class given is cell-based. As to conditions: SB-431542 0.1 to 10 μM or CKI-7 1 to 100 μM, single agent. How it is done:
Mouse ES cells were cultured in the presence of SB-431542 (0.1 to 10 μM) and/or CKI-7 (1 to 100 μM) under SFEB conditions. Five days after the start of the culture, the cells were recovered and re-suspended in a fresh differentiation medium, and, to produce re-aggregated pellets, the suspension was centrifuged at 800 g for 10 minutes. After cultivation at 37° C. for 1 hour, three to five re-aggregated pellets per cm^2 were replated onto poly-D-lysine/laminin/fibronectin-coated culture slides, along with differentiation medium. After cultivation for 5 days, the cells were fixed and stained with anti-βII tubulin antibody, and the ratio of βII tubulin-positive cells was determined under microscopy. The other experimental conditions were the same as those for Example 1.

For the molecule `NCCNS(=O)(=O)c1ccc(Cl)c2ccncc12` [CKI-7, N-(2-aminoethyl)-5-chloro-isoquinoline-8-sulfonamide], the “number of βII tubulin-positive cells” value was “increased”.

Turning to `NC(=O)c1ccc(-c2nc(-c3ccc4c(c3)OCO4)c(-c3ccccn3)[nH]2)cc1` [SB-431542], the “number of βII tubulin-positive cells” value is “increased”.
